Assay results reported in patent US20070021509A1, “Phosphate transport inhibitors” (priority 2001, published 2007).

System: phosphate uptake by rabbit intestinal Brush Border Membrane Vesicles (BBMV)
Assay: 33PO4 uptake in rabbit intestinal BBMV (HTS), phosphate transporter inhibition in vitro
Assay type: biochemical
Conditions: Table 4, phosphate uptake, read-out: IC50
Procedure, shortened: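 BBMV from duodenal mucosa of male New Zealand White rabbits, diluted to about 0.5-2.0 mg/mL protein. Uptake buffers carried 33PO4 at 200,000 CPM/19 μL. Controls: Na uptake buffer (max), plus 100 μM KH2PO4 pH 7.4 (mid), K uptake buffer (min).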

Row | SMILES | IC50 [µM]
1 | O=C(Nc1cccc(C(F)(F)F)c1)Nc1ccc(Br)cc1P(=O)(O)O [Compound 192] | 101 to 500
2 | O=C(Nc1cc(Cl)c(Cl)cc1Cl)Nc1ccc(Br)cc1P(=O)(O)O [Compound 193] | 101 to 500
3 | O=C(Nc1ccc(F)c([N+](=O)[O-])c1)Nc1ccc(Br)cc1P(=O)(O)O [Compound 194] | 101 to 500
4 | O=C(Nc1cccc(Cl)c1)Nc1ccc(Br)cc1P(=O)(O)O [Compound 195] | 501 to 1000
5 | Cc1cccc(C)c1NC(=O)Nc1ccc(Br)cc1P(=O)(O)O [Compound 196] | 501 to 1000
6 | N#Cc1cccc(NC(=O)Nc2ccc(Br)cc2P(=O)(O)O)c1 [Compound 197] | 501 to 1000
7 | O=C(Nc1ccc(Br)cc1P(=O)(O)O)Nc1cccc(C(F)(F)F)c1Cl [Compound 198] | 501 to 1000
8 | CC(=O)c1cccc(NC(=O)Nc2ccc(Br)cc2P(=O)(O)O)c1 [Compound 199] | 501 to 1000
9 | O=C(Nc1ccccc1F)Nc1ccc(Br)cc1P(=O)(O)O [Compound 200] | 501 to 1000
10 | O=C(NCc1ccccc1)Nc1ccc(Br)cc1P(=O)(O)O [Compound 201] | 501 to 1000
11 | O=C(Nc1ccc(C(F)(F)F)cc1)Nc1ccc(Br)cc1P(=O)(O)O [Compound 202] | 501 to 1000
12 | COc1cccc(NC(=O)Nc2ccc(Br)cc2P(=O)(O)O)c1 [Compound 203] | 501 to 1000
13 | O=C(Nc1ccc(Br)cc1P(=O)(O)O)Nc1c(F)cccc1F [Compound 204] | 1000 to 1500
14 | O=C(Nc1ccccc1)Nc1ccc(Br)cc1P(=O)(O)O [Compound 205] | 1000 to 1500
15 | Cc1cc(C)cc(NC(=O)Nc2ccc(Br)cc2P(=O)(O)O)c1 [Compound 206] | 1000 to 1500
16 | Cc1ccc(NC(=O)Nc2ccc(Br)cc2P(=O)(O)O)cc1 [Compound 207] | 1000 to 1500
17 | CCOC(=O)c1cccc(NC(=O)Nc2ccc(Br)cc2P(=O)(O)O)c1 [Compound 208] | 1000 to 1500
18 | CC(NC(=O)Nc1ccc(Br)cc1P(=O)(O)O)c1cccc2ccccc12 (stereo not shown) [Compound 209] | > 1500
19 | CC(C)c1ccc(NC(=O)Nc2ccc(Br)cc2P(=O)(O)O)cc1 [Compound 210] | > 1500
20 | O=C(Nc1cccc(Br)c1)Nc1ccc(Br)cc1P(=O)(O)O [Compound 211] | > 1500
21 | CCOc1ccc(NC(=O)Nc2ccc(Br)cc2P(=O)(O)O)cc1 [Compound 212] | > 1500
22 | O=C(Nc1ccc(Cl)cc1)Nc1ccc(Br)cc1P(=O)(O)O [Compound 213] | > 1500

Same assay, conditions: Table 5, 100 μM compound

Row | SMILES | % Inhib. at 100 μM [%]
23 | O=C(Nc1cccc(C(F)(F)F)c1)Nc1cccc(C(F)(F)F)c1 [Compound 214] | 100
24 | O=C(Nc1cccc(C(F)(F)F)c1)Nc1cccc(Cl)c1Cl [Compound 215] | 96
25 | O=C(Nc1cccc(C(F)(F)F)c1)Nc1ccc(Cl)c(Cl)c1 [Compound 216] | 95
26 | O=C(Nc1cc(Cl)cc(Cl)c1)Nc1cccc(C(F)(F)F)c1 [Compound 217] | 95
27 | O=C(Nc1cccc(C(F)(F)F)c1)Nc1c(Cl)cccc1Cl [Compound 218] | 93
28 | O=C(Nc1cccc(Cl)c1)Nc1cccc(C(F)(F)F)c1 [Compound 219] | 92
29 | O=C(Nc1cccc(C(F)(F)F)c1)Nc1cc(Cl)ccc1Cl [Compound 220] | 92
30 | O=C(NCc1ccc(Cl)c(Cl)c1)Nc1ccc(Br)cc1P(=O)([O-])[O-].[Na+].[Na+] [Compound 221] | 91
31 | O=C(Nc1cccc(C(F)(F)F)c1)Nc1ccc(F)c([N+](=O)[O-])c1 [Compound 222] | 88
32 | O=C(Nc1cccc(C(F)(F)F)c1)Nc1ccccc1Cl [Compound 223] | 85
33 | O=C(Nc1cccc(C(F)(F)F)c1)Nc1ccc(Cl)cc1Cl [Compound 224] | 85
34 | O=C(Nc1cccc(C(F)(F)F)c1)N1CCc2ccccc21 [Compound 225] | 80
35 | CCOP(=O)(OCC)c1cc(Br)ccc1NC(=O)Nc1cccc(C(F)(F)F)c1 [Compound 226] | 77
36 | O=C(Nc1ccc(Br)cc1)Nc1cccc(C(F)(F)F)c1 [Compound 227] | 75
37 | O=C(Nc1ccc(Cl)cc1)Nc1cccc(C(F)(F)F)c1 [Compound 228] | 74
38 | O=C(Nc1cccc(F)c1)Nc1ccc(Br)cc1P(=O)(O)O [Compound 229] | 73
39 | O=C(Nc1cccc(C(F)(F)F)c1)Nc1ccc(Br)cc1P(=O)(O)O [Compound 230] | 49

Same assay, conditions: Table 6, 100 μM compound

Row | SMILES | % Inhib. at 100 μM [%]
40 | COc1ccc(-c2cc(-c3ccco3)on2)cc1 [Compound 231] | 74
41 | c1ccc(Oc2ccc(-c3cc(-c4ccco4)on3)cc2)cc1 [Compound 232] | 72
42 | c1ccc(Oc2ccc(C3=NOC(c4ccco4)C3)cc2)cc1 (stereo not shown) [Compound 233] | 68
43 | Oc1ccc(C2=NOC(c3ccc(F)cc3)C2)cc1 (stereo not shown) [Compound 234] | 62
44 | Fc1ccc(C2CC(c3ccc(Oc4ccccc4)cc3)=NO2)cc1 (stereo not shown) [Compound 235] | 54
45 | Oc1ccc(-c2cc(-c3ccco3)on2)cc1 [Compound 236] | 41
46 | COc1ccc(C2=NOC(c3ccco3)C2)cc1 (stereo not shown) [Compound 237] | 40
47 | Cn1nc(-c2cc(Cl)cc(Cl)c2O)cc1-c1ccc(Br)cc1 [Compound 238] | 16

Same assay, conditions: Table 7, phosphate uptake, read-out: IC50

Row | SMILES | IC50 [µM]
48 | COc1ccc(-c2cc(-c3cccc(F)c3)n(C)n2)cc1 [Compound 239] | 101 to 500
49 | COc1ccc(-c2cc(-c3ccco3)n(C)n2)cc1 [Compound 240] | 101 to 500
50 | Cn1nc(-c2ccc(O)cc2)cc1-c1cccc(F)c1 [Compound 241] | 101 to 500
51 | Cn1nc(-c2ccc(O)cc2)cc1-c1ccco1 [Compound 242] | > 1500
52 | Cn1nc(-c2ccc(Oc3ccccc3)cc2)cc1-c1cccc(F)c1 [Compound 243] | > 1500
53 | Cn1nc(-c2ccc(Oc3ccccc3)cc2)cc1-c1ccco1 [Compound 244] | > 1500

Same assay, conditions: Table 8, 100 μM compound

Row | SMILES | % Inhib. at 100 μM [%]
54 | CCOP(=O)(OCC)c1cc(Br)ccc1NC(=O)c1ccc(Br)cc1 [Compound 245] | 67
55 | CCCCOc1ccc(C(=O)Nc2ccc(Br)cc2P(=O)(OCC)OCC)cc1 [Compound 246] | 57
56 | CCCCCCCc1ccc(C(=O)Nc2ccc(Br)cc2P(=O)(OCC)OCC)cc1 [Compound 247] | 53
57 | CCOP(=O)(OCC)c1cc(Br)ccc1NC(=O)c1ccc(OC)c(OC)c1 [Compound 248] | 48

Same assay, conditions: Table 9, 100 μM compound

Row | SMILES | % Inhib. at 100 μM [%]
58 | O=C(/C=C/c1ccc(Br)cc1)c1cc(Cl)cc(Cl)c1O [Compound 249] | 50

Same assay, conditions: Table 10, phosphate uptake, read-out: IC50

Row | SMILES | IC50 [µM]
59 | CCOP(=O)(OCC)c1cc(Br)ccc1NC(=O)c1ccc(OC(F)(F)F)cc1 [Compound 250] | < 50
60 | O=C(Nc1ccc(Br)cc1)c1cc(Br)cc(Br)c1O [Compound 251] | 51 to 100
61 | O=C(Nc1ccc(Cl)c(Cl)c1)c1cc(Cl)cc(Cl)c1O [Compound 252] | 51 to 100
62 | O=C(Nc1ccc(Br)cc1)c1cc(Br)cc(Br)c1O [Compound 253] | 101 to 500
63 | O=C(Nc1ccc(Oc2ccc3ccccc3c2Br)c(Cl)c1)c1cc(Br)cc(Br)c1O [Compound 254] | 101 to 500
64 | O=C(Nc1ccc(Cl)cc1)c1cc(Br)cc(Br)c1O [Compound 255] | 101 to 500
65 | O=C(Nc1cc(C(F)(F)F)ccc1C(F)(F)F)c1cc(Br)cc(Br)c1O [Compound 256] | 101 to 500
66 | COc1ccc(NC(=O)c2cc3ccc4c5ccccc5[nH]c4c3cc2O)cc1 [Compound 257] | 101 to 500
67 | O=C(Nc1ccc(Oc2ccc(Cl)c3ccccc23)c(Cl)c1)c1cc(Cl)cc(Cl)c1O [Compound 258] | 101 to 500
68 | CCOP(=O)(OCC)c1cc(Br)ccc1NC(=O)c1ccc(OC(F)(F)F)cc1 [Compound 259] | 101 to 500
69 | CCOP(=O)(OCC)c1cc(Br)ccc1NC(=O)c1ccc(F)cc1F [Compound 260] | 101 to 500
70 | O=C(Nc1ccc(Br)cc1C(=O)O)c1ccc(Cl)c([N+](=O)[O-])c1 [Compound 261] | 101 to 500
71 | CCOP(=O)(OCC)c1cc(Br)ccc1NC(=O)c1cc(F)c(Cl)cc1Cl [Compound 262] | 101 to 500
72 | O=C(Nc1ccc(Br)cc1)c1cc(Br)cc(Br)c1OCCP(=O)(O)O [Compound 263] | 101 to 500
73 | CCOP(=O)(OCC)c1cc(Br)ccc1NC(=O)c1cc(C(F)(F)F)ccc1C(F)(F)F [Compound 264] | 101 to 500
74 | CCOP(=O)(OCC)c1cc(Br)ccc1NC(=O)c1cccc2ccccc12 [Compound 265] | 501 to 1000
75 | O=C(Nc1ccc(Br)cc1)c1cc(Br)cc(Br)c1 [Compound 266] | 501 to 1000
76 | CCOP(=O)(OCC)c1cc(Br)ccc1NC(=O)c1ccc(Cl)c(Cl)c1 [Compound 267] | 501 to 1000
77 | O=C(Nc1ccc(Br)cc1P(=O)(O)O)c1ccc(OC(F)(F)F)cc1 [Compound 268] | > 1500
78 | O=C(Nc1ccccc1)c1ccccc1P(=O)(O)O [Compound 269] | > 1500
79 | CCOP(=O)(OCC)c1cc(Br)ccc1NC(=O)c1c(Cl)cc(Cl)cc1Cl [Compound 270] | > 1500
80 | O=C(Nc1ccc(Br)cc1I)c1ccc(OC(F)(F)F)cc1 [Compound 271] | > 1500
81 | CCOP(=O)(OCC)c1cc(Br)ccc1NC(=O)c1ccc(OC(F)(F)F)cc1 [Compound 272] | > 1500

Same assay, conditions: Table 11, phosphate uptake, read-out: IC50

Row | SMILES | IC50 [µM]
82 | O=C(CCc1ccc(O)cc1)c1c(O)cc(O)cc1O [Compound 273] | 501 to 1000
83 | O=C(/C=C/c1ccco1)c1cccc(O)c1 [Compound 274] | 501 to 1000
84 | COc1cccc(C(=O)/C=C/c2ccco2)c1 [Compound 275] | 501 to 1000
85 | O=C(/C=C/c1ccco1)c1cccc(Oc2ccccc2)c1 [Compound 276] | 501 to 1000
86 | O=C(/C=C/c1cccc(F)c1)c1cccc(O)c1 [Compound 277] | 501 to 1000
87 | COc1cccc(C(=O)/C=C/c2cccc(F)c2)c1 [Compound 278] | > 1500
88 | O=C(/C=C/c1cccc(F)c1)c1cccc(Oc2ccccc2)c1 [Compound 279] | > 1500
